Measurements published in US8906825B2, “Herbicidal compositions comprising 4-amino-3-chloro-5-fluoro-6-(4-chloro-2-fluoro-3-methoxyphenyl) pyridine-2-carboxylic acid or a derivative thereof and triazolopyrimidine sulfonamides” (Dow AgroSciences LLC, priority 2012, dated 2014).

Columns and labels:
Type in all cases: in vivo
[1] = tested on: LEFCH (Leptochloa chinensis (L.) Nees, Chinese sprangletop); assay: In-water applied herbicidal mixtures, transplanted paddy rice, greenhouse (Example II)
Method: (§1) Weed seeds or nutlets of the desired test plant species were planted in puddled soil (mud) prepared by mixing a shredded, non-sterilized mineral soil (50.5 percent silt, 25.5 percent clay, and 24 percent sand, with a pH of about 7.6 and an organic matter content of about 2.9 percent) and water at a 1:1 volumetric ratio. The prepared mud was dispensed in 365 mL aliquots into 16-ounce (oz.) non-perforated plastic pots with a surface area of 86.59 square centimeters (cm^2) leaving a headspace of 3 centimeters in each pot. Mud was allowed to dry overnight prior to planting or transplanting. Rice seeds were planted in Sun Gro MetroMix® 306 planting mixture, which typically has a pH of 6.0 to 6.8 and an organic matter content of about 30 percent, in plastic plug trays. Seedlings at the second or third leaf stage of growth were transplanted into 840 mL of mud contained in 32-oz. non-perforated plastic pots with a surface area of 86.59 cm^2 4 days prior to herbicide application. The paddy was created by filling the headspace of the pots with 2.5 to 3 cm of water. When required to ensure good germination and healthy plants, a fungicide treatment and/or other chemical or physical treatment was applied. The plants were grown for 4-22 days in a greenhouse with an approximate 14 h photoperiod which was maintained at about 29′C during the day and about 26° C. during the night. Nutrients were added as Osmocote® (19:6:12, N:P:K+minor nutrients) at 2 g per 16-oz. pot and 4 g per 32-oz. pot. Water was added on a regular basis to maintain the paddy flood, and supplemental lighting was provided with overhead metal halide 1000-Watt lamps as necessary. The plants were employed for testing when they reached the first through fourth true leaf stage.
(§2) Treatments consisted of the acid or esters of 4-amino-3-chloro-5-fluoro-6-(4-chloro-2-fluoro-3-methoxy-phenyl)pyridine-2-carboxylic acid (compound A) each formulated as an SC and various herbicidal components alone and in combination. Forms of compound A were applied on an acid equivalent basis.
(§3) Other herbicidal components were applied on an active ingredient basis and included acetolactate synthase (ALS)-inhibiting herbicides (sulfonamide chemical class) penoxsulam formulated as Grasp® SC (GF-443), diclosulam formulated as Strongarm®, and cloransulam-methyl formulated as FirstRate®.
(§4) Treatment requirements for each compound or herbicidal component were calculated based upon the rates being tested, the concentration of active ingredient or acid equivalent in the formulation, an application volume of 2 mL per component per pot, and an application area of 86.59 cm^2 per pot.
(§5) For formulated compounds, a measured amount was placed in an individual 100 or 200 mL glass vial and was dissolved in a volume of 1.25% (v/v) Agri-Dex® crop oil concentrate to obtain each application solution.
(§6) Applications were made by injecting with a pipetter appropriate amounts of the application solutions, individually and sequentially, into the aqueous layer of the paddy. Control plants were treated in the same manner with the solvent blank. Applications were made so that all treated plant material received the same concentrations of acetone and crop oil concentrate.
(§7) The treated plants and control plants were placed in a greenhouse as described above and water was added as needed to maintain a paddy flood. After approximately 3 weeks the condition of the test plants as compared with that of the untreated plants was determined visually and scored on a scale of 0 to 100 percent where 0 corresponds to no injury or growth inhibition and 100 corresponds to complete kill.
(§8) Colby's equation was used to determine the herbicidal effects expected from the mixtures (Colby, S. R. 1967. Calculation of the synergistic and antagonistic response of herbicide combinations. Weeds 15:20-22.).
(§9) The following equation was used to calculate the expected activity of mixtures containing two active ingredients, A and B: Expected=A+B−(A×B/100)

SCPMA (sea clubrush) = assay: as above
Method: as §1, §2, §3, §4, §5, §6, §7, §8, §9

[2] = tested on: BRAPP (Brachiaria platyphylla (Griseb.) Nash, broadleaf signalgrass); assay: Postemergence field trials in direct-seeded rice, United States (Example IV); details: foliar
Method: (§10) Multiple post-emergence field trials were conducted under field conditions in Tolima, Colombia; Thessaloniki, Greece; Ottobiano and Copiano, Italy; Greenville, Miss. and Eagle Lake, Tex., USA; and water-injected treatments were tested at Ryugasaki, Japan. Trial sites were located in commercially grown fields of direct-seeded rice (Oryza sativa) using standard herbicide small plot research methodology, except in Japan where transplanted rice was utilized for the field trial. Post-emergence trial plot size varied from 2 to 3 meter (m)×5 to 8 m (width×length) with 4 replicates per treatment. Water-injected trial plot size was 2×2 m with 3 replicates per treatment. The rice crop was grown using normal cultural practices for fertilization, seeding, watering, flooding and maintenance to ensure good growth of the crop and the weeds.
(§11) All treatments in the post-emergence field trials were applied using a backpack compressed air/gas sprayer with flat fan nozzles (80° or 110°) calibrated to apply 187 to 300 L/ha spray volume at approximately 200-400 kPa nozzle pressure. In Japan, treatments were water-injected applied where the specified amount of commercial product was mixed in 100 mls of water per replicate and applied directly into 3 cm deep water containing the crop and weeds. Treatments consisted of the benzyl ester of 4-amino-3-chloro-5-fluoro-6-(4-chloro-2-fluoro-3-methoxy-phenyl)pyridine-2-carboxylic acid (Compound A), formulated as an SC (suspension concentrate), and various herbicidal components alone and in combination.
(§12) Commercially available products of penoxsulam (Viper 20OD® (Europe), Grasp 240SC® (USA), and Wideattack 37.5SC® (Japan)) were mixed in water at appropriate formulated product rates to achieve the desired rates based on a unit area of application (hectare) to achieve the desired rates as shown. Treatments were rated at 15 to 56 days after application (DAA) as compared to the untreated control plants. Visual weed control was scored on a scale of 0 to 100 percent where 0 corresponds to no injury and 100 corresponds to complete kill.
(§13) All treatment results, both for the single product and mixtures, are an average of 3 to 4 replicates. The trial sites had naturally occurring populations of weeds. The weed spectrum included, but was not limited to, broadleaf signalgrass (Brachiaria platyphylla (Griseb.) Nash or Urochloa platyphylla (Nash) R.D. Webster, BRAPP), smallflower umbrellaplant (Cyperus difformis L., CYPDI), yellow nutsedge (Cyperus esculentus L., CYPES), multiple Echinochloa species in the same field (ECHSS) in Italy (mixed ECHSS biotypes), Amazon sprangletop (Leptochloa panicoides (J. Presl) A.S. Hitchc., LEFPA), and Japanese bulrush (Schoenoplectus juncoides (Roxb.) Palla, SCPJU).

[3] = tested on: LEFPA (Leptochloa panicoides(Presl.) Hitchc., Amazon sprangletop); assay: as above; details: foliar
Method: as §10, §11, §12, §13

[4] = tested on: CYPDI (Cyperus difformis L., smallflower umbrella sedge); assay: Postemergence field trials in direct-seeded rice, Greece and Italy (Example IV); details: foliar
Method: as §10, §11, §12, §13

ECHSS (Echinochloa spp.) = assay: as above; details: foliar
Method: as §10, §11, §12, §13

[5] = tested on: SCPJU (Schoenoplectus juncoides Roxb., Japanese bulrush); assay: Water-injected field trial in transplanted rice, Japan (Example IV)
Method: as §10, §11
as §12, with “kill. […]” for “kill.”

[6] = Compound A Benzyl Ester 24 gae/ha

## COc1c(Cl)ccc(-c2nc(C(=O)OCc3ccccc3)c(Cl)c(N)c2F)c1F [Compound A Benzyl Ester, benzyl ester of 4-amino-3-chloro-5-fluoro-6-(4-chloro-2-fluoro-3-methoxy-phenyl)pyridine-2-carboxylic acid]
[1]; Compound A Benzyl Ester 8.75 gae/ha
  Visual Weed Control (%) - 25 DAA LEFCH Obs: 50%
[1]; Compound A Benzyl Ester 17.5 gae/ha
  Visual Weed Control (%) - 25 DAA LEFCH Obs: 90%
SCPMA (sea clubrush); Compound A Benzyl Ester 48 gae/ha
  Visual Weed Control (%) - 21 DAA SCPMA Obs: 0%
SCPMA (sea clubrush); Compound A Benzyl Ester 96 gae/ha
  Visual Weed Control (%) - 21 DAA SCPMA Obs: 0%
[2]; Compound A Benzyl Ester 32 gae/ha
  Visual Weed Control (%) - 15-19 DAA BRAPP Obs: 62%
[3]; [6]
  Visual Weed Control (%) - 15-19 DAA LEFPA Obs: 53%
[4]; [6]
  Visual Weed Control (%) - 54-56 DAA CYPDI Obs: 81%
ECHSS (Echinochloa spp.); [6]
  Visual Weed Control (%) - 54-56 DAA ECHSS Obs: 40%
[5]; Compound A Benzyl Ester 150 gae/ha
  Visual Weed Control (%) - 28 DAA SCPJU Obs: 22%
[5]; Compound A Benzyl Ester 200 gae/ha
  Visual Weed Control (%) - 28 DAA SCPJU Obs: 25%

## COc1cnc(OC)n2nc(NS(=O)(=O)c3c(OCC(F)F)cccc3C(F)(F)F)nc12 [Penoxsulam, 2-(2,2-difluoroethoxy)-N-(5,8-dimethoxy[1,2,4]triazolo[1,5-c]pyrimidin-2-yl)-6-(trifluoromethyl)benzenesulfonamide, reference compound]
[1]; Penoxsulam 17.5 gai/ha, Table 11
  Visual Weed Control (%) - 25 DAA LEFCH Obs: 0%
[1]; Penoxsulam 35 gai/ha, Table 10
  Visual Weed Control (%) - 25 DAA LEFCH Obs: 40%
[1]; Penoxsulam 35 gai/ha, Table 11
  Visual Weed Control (%) - 25 DAA LEFCH Obs: 40%
SCPMA (sea clubrush); Penoxsulam 10 gai/ha
  Visual Weed Control (%) - 21 DAA SCPMA Obs: 70%
SCPMA (sea clubrush); Penoxsulam 20 gai/ha
  Visual Weed Control (%) - 21 DAA SCPMA Obs: 88%
SCPMA (sea clubrush); Penoxsulam 40 gai/ha
  Visual Weed Control (%) - 21 DAA SCPMA Obs: 95%
[2]; Penoxsulam 40 gai/ha
  Visual Weed Control (%) - 15-19 DAA BRAPP Obs: 35%
[3]; Penoxsulam 40 gai/ha
  Visual Weed Control (%) - 15-19 DAA LEFPA Obs: 16%
[4]; Penoxsulam 40 gai/ha
  Visual Weed Control (%) - 54-56 DAA CYPDI Obs: 0%
ECHSS (Echinochloa spp.); Penoxsulam 40 gai/ha
  Visual Weed Control (%) - 54-56 DAA ECHSS Obs: 50%
[5]; Penoxsulam 50 gai/ha
  Visual Weed Control (%) - 28 DAA SCPJU Obs: 20%
